Assay results published in ChEMBL document CHEMBL1201862, “PubChem BioAssay data set” (2004).
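96-well plates; 48 h exposure; 5 concentrations. Endpoints by linear interpolation between flanking doses. Not reached: highest tested concentration assigned. GI50: concentration for 50% inhibition of growth.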 The source made the active and inactive calls. Cut-off read from the data, not from the text of the source: active = GI50 up to about 1.1 µM and inactive = higher. Non-standard residues stand in square brackets, D forms with d. Residues, ends and D or L forms follow the SMILES beside them. *: point of attachment. hSer = N[CH](CCO)C(=O)O; Boc = CC(C)(C)OC(=O)*

Assays:
Test in all cases: NCI anticancer screen, dose series, 48 h
A549 = tested on: A549
SR = tested on: SR
CCRF-CEM = tested on: CCRF-CEM
T47D = tested on: T47D
OVCAR-5 = tested on: OVCAR-5
SNB-19 = tested on: SNB-19
U-251 = tested on: U-251
SN12C = tested on: SN12C
SK-OV-3 = tested on: SK-OV-3
SF-295 = tested on: SF-295
DU-145 = tested on: DU-145
786-0 = tested on: 786-0
MDA-MB-435 = tested on: MDA-MB-435
NCI-H226 = tested on: NCI-H226
UACC-257 = tested on: UACC-257
HT-29 = tested on: HT-29
CAKI-1 = tested on: CAKI-1
SK-MEL-2 = tested on: SK-MEL-2
HOP-92 = tested on: HOP-92
K562 = tested on: K562

Measured: GI50

COC1=CC(=O)O/C1=C(\OC)C1OC1c1ccccc1 (stereo not drawn)
inactive: A549 > 100 µM | SR 13 µM | CCRF-CEM 35.2 µM | T47D 76 µM | OVCAR-5 > 100 µM | SNB-19 > 100 µM | U-251 > 100 µM | SN12C > 100 µM | SK-OV-3 > 100 µM | SF-295 > 100 µM | DU-145 > 100 µM | 786-0 > 100 µM | MDA-MB-435 > 100 µM | NCI-H226 > 100 µM | UACC-257 > 100 µM | HT-29 > 100 µM | CAKI-1 > 100 µM | SK-MEL-2 > 100 µM | HOP-92 > 100 µM

CC12CCC([C@H](C(O)C3CCCCC3)C1=O)C2(C)C (stereo partly drawn)
inactive: SR 22.4 µM | CCRF-CEM 31.6 µM | T47D > 100 µM | OVCAR-5 > 100 µM | SNB-19 > 100 µM | U-251 > 100 µM | SN12C > 100 µM | SK-OV-3 > 100 µM | SF-295 > 100 µM | DU-145 > 100 µM | 786-0 > 100 µM | MDA-MB-435 > 100 µM | NCI-H226 > 100 µM | UACC-257 > 100 µM | K562 63 µM | CAKI-1 > 100 µM | SK-MEL-2 > 100 µM | HOP-92 > 100 µM

O=C1NC2(CN3CCC2CC3)C(=O)N1CN(Cc1ccccc1)c1ccccc1 (stereo not drawn)
inactive: A549 81.1 µM | SR 25.3 µM | T47D 39 µM | OVCAR-5 > 100 µM | SNB-19 > 100 µM | U-251 > 100 µM | SN12C 71 µM | SK-OV-3 > 100 µM | SF-295 > 100 µM | DU-145 48.4 µM | 786-0 > 100 µM | MDA-MB-435 > 100 µM | NCI-H226 > 100 µM | UACC-257 46 µM | HT-29 56.6 µM | CAKI-1 > 100 µM | SK-MEL-2 > 100 µM | HOP-92 > 100 µM

N#CCCN(CCC#N)c1ccc(/C=C2\N=C(c3ccccc3)N(c3ccc(F)cc3)C2=O)cc1
inactive: A549 > 100 µM | SR > 100 µM | T47D > 100 µM | OVCAR-5 > 100 µM | SNB-19 > 100 µM | U-251 > 100 µM | SN12C > 100 µM | SK-OV-3 > 100 µM | SF-295 > 100 µM | DU-145 > 100 µM | 786-0 > 100 µM | MDA-MB-435 > 100 µM | NCI-H226 > 100 µM | UACC-257 > 100 µM | HT-29 > 100 µM | K562 > 100 µM | CAKI-1 > 100 µM | SK-MEL-2 > 100 µM | HOP-92 > 100 µM

NS(=O)(=O)c1ccc(NCc2cnc3ccccc3c2)cc1
inactive: A549 > 100 µM | SR > 100 µM | T47D > 100 µM | OVCAR-5 > 100 µM | SNB-19 > 100 µM | U-251 > 100 µM | SN12C > 100 µM | SK-OV-3 > 100 µM | SF-295 > 100 µM | DU-145 > 100 µM | 786-0 39.4 µM | MDA-MB-435 > 100 µM | NCI-H226 > 100 µM | UACC-257 > 100 µM | HT-29 > 100 µM | K562 > 100 µM | CAKI-1 > 100 µM | SK-MEL-2 > 100 µM | HOP-92 49.8 µM

COc1cc(NC(C)=O)ccc1C(=O)NN1C(=O)C(Cl)C1c1ccco1 (stereo not drawn)
inactive: A549 92.5 µM | SR 36.6 µM | CCRF-CEM 65.3 µM | T47D > 100 µM | OVCAR-5 > 100 µM | SNB-19 > 100 µM | SN12C > 100 µM | DU-145 > 100 µM | 786-0 > 100 µM | MDA-MB-435 > 100 µM | NCI-H226 44.7 µM | HT-29 > 100 µM | K562 > 100 µM | CAKI-1 88.9 µM | SK-MEL-2 > 100 µM | HOP-92 > 100 µM

Cc1c(NC(=S)N/N=C\C(=N/NC(=S)Nc2c(C)n(C)n(-c3ccccc3)c2=O)c2ccccc2)c(=O)n(-c2ccccc2)n1C
inactive: A549 > 100 µM | SR > 100 µM | T47D > 100 µM | OVCAR-5 > 100 µM | SNB-19 > 100 µM | U-251 > 100 µM | SK-OV-3 > 100 µM | SF-295 > 100 µM | DU-145 > 100 µM | 786-0 > 100 µM | MDA-MB-435 > 100 µM | NCI-H226 > 100 µM | UACC-257 > 100 µM | HT-29 > 100 µM | CAKI-1 > 100 µM | SK-MEL-2 > 100 µM | HOP-92 > 100 µM

O=[N+]([O-])c1cccc(/N=N/c2c(O)c(S(=O)(=O)O)cc3cc(S(=O)(=O)O)ccc23)c1
inactive: A549 > 100 µM | SR > 100 µM | CCRF-CEM > 100 µM | T47D > 100 µM | OVCAR-5 > 100 µM | SNB-19 > 100 µM | U-251 > 100 µM | SN12C > 100 µM | SK-OV-3 > 100 µM | SF-295 > 100 µM | DU-145 > 100 µM | 786-0 > 100 µM | MDA-MB-435 > 100 µM | NCI-H226 > 100 µM | UACC-257 > 100 µM | K562 > 100 µM | CAKI-1 > 100 µM | SK-MEL-2 > 100 µM | HOP-92 > 100 µM

O=C(NCc1ccc(Cl)c(Cl)c1)c1nc2ccccc2nc1NCc1ccc(Cl)c(Cl)c1
inactive: A549 > 100 µM | SR > 100 µM | CCRF-CEM > 100 µM | T47D > 100 µM | OVCAR-5 > 100 µM | SNB-19 > 100 µM | U-251 > 100 µM | SN12C > 100 µM | SF-295 > 100 µM | DU-145 > 100 µM | 786-0 > 100 µM | MDA-MB-435 > 100 µM | NCI-H226 > 100 µM | UACC-257 > 100 µM | HT-29 > 100 µM | K562 > 100 µM | CAKI-1 > 100 µM | SK-MEL-2 > 100 µM | HOP-92 > 100 µM

COCCC(NC(=O)C(CC(C)C)NC(=O)OC(C)(C)C)C(N)=O (stereo not drawn) (Boc-Leu-[hSer](Me)-NH2; configuration not given here)
inactive: A549 > 100 µM | SR > 100 µM | CCRF-CEM > 100 µM | T47D > 100 µM | SNB-19 > 100 µM | U-251 > 100 µM | SN12C > 100 µM | SK-OV-3 > 100 µM | SF-295 > 100 µM | DU-145 > 100 µM | 786-0 > 100 µM | MDA-MB-435 > 100 µM | NCI-H226 > 100 µM | UACC-257 > 100 µM | HT-29 > 100 µM | K562 > 100 µM | CAKI-1 > 100 µM | SK-MEL-2 > 100 µM | HOP-92 > 100 µM
